According to patent US20190144867A1, “METHOD FOR MITIGATING METASTASIS” (RESEARCH FOUNDATION OF THE CITY UNIVERSITY OF NEW YORK, priority 2015, published 2019):

System: SN12L1 metastatic renal carcinoma cells
Test: Modified Boyden chamber 3D migration/invasion with interstitial flow
Format: cell-based, human
Conditions: for normalized migration response to interstitial flow with MAPK signaling inhibitors: flow normalized to no-flow controls, FIG. 5; for migration response to interstitial flow following GAG enzymatic cleavage: 4h and 24h exposure to interstitial flow, normalized by no-flow controls
Description: A modified Boyden chamber was used to apply interstitial flow forces to cells in a three-dimensional culture, mimicking those experienced by tumor cells within the interstitium. See Integr Biol (Camb) 2013; 5(11): 1334-43 for details. Briefly, cells were suspended in type I collagen (4 mg/ml), exposed to fluid flow forces via a Darcy flow apparatus (4 h), permitted to migrate for 24 h (without flow) through Transwell chambers (with 8μm pore filters) towards 1 nM TGF-α. Invasion rates were quantified by counting cells present on the underside of the filters. For these tests, only a 4 hour exposure to flow at the lowest shear stress level was applied using a 1 cm H2O hydrostatic pressure differential to drive the flow. Shear stress transmitted to the cell surface through the glycocalyx layer was estimated to be approximately 0.84 dynes/cm^2 and the interstitial flow velocity was 0.83 μm/sec as measured previously, which is in the physiologic range of tumor interstitial flows (0.1-2.0 μm/sec). In addition, baseline migration rates (without flow) for all clonal lines were determined. Based on proliferation rates, HS expression, baseline and flow-mediated migration rates, the CtGFP and shORG-8 cell lines were selected as a paired match for continued experimentation.

| Compound | normalized migration response to interstitial flow with MAPK signaling inhibitors | migration response to interstitial flow following GAG enzymatic cleavage (FIG. 4) | migration response to interstitial flow following GAG enzymatic cleavage (FIG. 4, listed as Hyaluronidase) | migration response to interstitial flow following GAG enzymatic cleavage (FIG. 4, listed as heparinase) |
| --- | --- | --- | --- | --- |
| O=C1c2ccccc2-c2n[nH]c3cccc1c23 [JNK Inhibitor II, reference compound] | inhibited flow-induced enhancement of migration | – | – | – |
| hyaluronidase | – | greatly suppressed | significantly inhibit | – |
| N#CC(=C(/N)Sc1ccccc1N)/C(C#N)=C(\N)Sc1ccccc1N [U0126, reference compound] | inhibited flow-induced enhancement of migration | – | – | – |
| heparinase III | – | greatly suppressed | – | significantly inhibit |
| C[S+]([O-])c1ccc(-c2nc(-c3ccncc3)c(-c3ccc(F)cc3)[nH]2)cc1 (stereo not shown) [SB 203580, reference compound] | inhibited flow-induced enhancement of migration | – | – | – |
